Assay results taken from article PMC2694832, “Pharmacokinetics, tissue distribution and mass balance of radiolabeled dihydroartemisinin in male rats” (Malaria Journal, 2009).

Experiment: Tissue distribution of [^14C] DHA
Format: in vivo, rats
Settings: for Total Amounts of radioactivity in all measured tissues per gram / % of total AUC / Half-lives of radioactivity / Tissue AUC of radioactivity / Distribution of radioactivity: male rats i.v. 3 mg/20 μCi/kg
Description: Rats treated with a single [^14C] DHA dose of 3 mg/20 μCi/kg intravenously (5 rats per group) were anesthaetized by isofluorane and euthanized via cardiac puncture at 1, 6, 24, 48, 72, 96, and 192 hours, post-dosing. Blood, liver, brain, eyes, adrenals, muscle, lungs, heart, liver, kidneys, spleen, stomach, small intestine, large intestine, perirenal fat and bone marrow samples were removed from each animal by gross dissection. The gastrointestinal tract (GI) was separated into the stomach (oesophagus and stomach), small intestine, and large intestine. Contents were procured from each GI segment. After flushing with saline, these and other tissues were stored. Tissues were rinsed gently, but thoroughly with water to remove remaining traces of blood before storage. Dissecting instruments were also washed between tissue procurements to avoid cross-contamination.
For most of the tissues 20% (w/w) aqueous homogenates of the tissue were prepared. Aqueous homogenates of the faecal and GI content samples were also prepared. Metabolism cages were washed with a solution of 2% Count-off® and the volume was measured. Radioactivity in the plasma samples and in aliquots (approx. 0.02–1.0 ml) of urine and cage washings was determined. The blood cells (primarily erythrocytes), perirenal fat (approx. 0.2 g), bone marrow samples (approx. 0.1 ml), and approximately 300-μl aliquots of the homogenates of faeces, liver, kidneys, heart, brain, stomach and carcass were solubilized with SolvableTM tissue solubilizer (Perkin-Elmer Life and Analytical Sciences, Boston, MA). The homogenates of faeces, stomach content, and intestinal contents were extracted with 50% methanol for 24 hours. Aliquots of blood and pooled urine samples from selected intervals were also analysed for DHA content directly.
Total radioactivity in the collected tissue samples were quantified in duplicate. Weighed tissue aliquots (~0.2 g) were digested overnight in 2 ml of Solvable® tissue solubilizer (Perkin-Elmer Life and Analytical Sciences, Boston, MA) at 50°C. Coloured samples were decolourized by adding a maximum of 0.2 ml of 30% H2O2 for 30–60 minutes. Scintillation cocktail (Hyonic Fluor; Perkin-Elmer Boston. Massachusetts, USA) was then added and radioactivity determined in a Perkin-Elmer Tri-Carb 3100 TR scintillation spectrophotometer (Packard Instrument Co., Downers Grove, Illinois, USA). Faeces and intestinal contents were thoroughly homogenized before taking aliquots. Plasma was also analysed using the HPLC-ECD system to measure the concentration of unchanged DHA, as described by Li et al.

## C[C@@H]1CC[C@H]2[C@@H]([14CH3])C(O)O[C@@H]3O[C@@]4(C)CC[C@@H]1[C@]32OO4 (stereo partly drawn) [[^14C] DHA, [16-^14C] DHA]
1 hr
  Total Amounts of radioactivity in all measured tissues per gram: 87,187 ng equivalents/tissue gram
1 hr, listed as [^14C]-dihydroartemisinin
  Total Amounts of radioactivity in all measured tissues per gram: 87186.55 ng equivalents/tissue gram
1 hr, rats i.v. 3 mg/20 μCi/kg
  radioactivity in the total measured tissues amassed in the small intestine and its content: approximately 62.6%
6 hr
  Total Amounts of radioactivity in all measured tissues per gram: 86023 ng equivalents/tissue gram
6 hr, listed as [^14C]-dihydroartemisinin
  Total Amounts of radioactivity in all measured tissues per gram: 86023.26 ng equivalents/tissue gram
24 hr
  Total Amounts of radioactivity in all measured tissues per gram: 21,457 ng equivalents/tissue gram
24 hr, listed as [^14C]-dihydroartemisinin
  Total Amounts of radioactivity in all measured tissues per gram: 21457.06 ng equivalents/tissue gram
48 hr
  Total Amounts of radioactivity in all measured tissues per gram: 16,390 ng equivalents/tissue gram
48 hr, listed as [^14C]-dihydroartemisinin
  Total Amounts of radioactivity in all measured tissues per gram: 16390.68 ng equivalents/tissue gram
72 hr
  Total Amounts of radioactivity in all measured tissues per gram: 15,831 ng equivalents/tissue gram
72 hr, listed as [^14C]-dihydroartemisinin
  Total Amounts of radioactivity in all measured tissues per gram: 15831.77 ng equivalents/tissue gram
96 hr
  Total Amounts of radioactivity in all measured tissues per gram: 11,385 ng equivalents/tissue gram
96 hr, listed as [^14C]-dihydroartemisinin
  Total Amounts of radioactivity in all measured tissues per gram: 11385.67 ng equivalents/tissue gram
192 hr
  Total Amounts of radioactivity in all measured tissues per gram: 13,961 ng equivalents/tissue gram
192 hr, listed as [^14C]-dihydroartemisinin
  Total Amounts of radioactivity in all measured tissues per gram: 13961.18 ng equivalents/tissue gram
Adrenals
  % of total AUC: 10.59%
  Half-lives of radioactivity: 92.48 ± 44.34 h
  Tissue AUC of radioactivity: 448,390 ng·hr/g
Adrenals, listed as [^14C]-dihydroartemisinin
  Tissue AUC of radioactivity: 448390 ± 273502 ng·h/g
Blood, 1 hr
  Distribution of radioactivity: 936.19 ng equivalents/tissue gram
Blood, 6 hr
  Distribution of radioactivity: 795.07 ng equivalents/tissue gram
Blood, 24 hr
  Distribution of radioactivity: 366.76 ng equivalents/tissue gram
Blood, 48 hr
  Distribution of radioactivity: 252.05 ng equivalents/tissue gram
Blood, 72 hr
  Distribution of radioactivity: 194.59 ng equivalents/tissue gram
Blood, 96 hr
  Distribution of radioactivity: 130.92 ng equivalents/tissue gram
Blood, 192 hr
  Distribution of radioactivity: 118.71 ng equivalents/tissue gram
Blood
  % of total AUC: 1.07%
  Half-lives of radioactivity: 122.13 ± 8.73 h
  Tissue AUC of radioactivity: 45463 ± 6810 ng·h/g
Brain
  % of total AUC: 0.81%
  Half-lives of radioactivity: 72.21 ± 6.33 h
  Tissue AUC of radioactivity: 34,189 ng·hr/g
Brain, listed as [^14C]-dihydroartemisinin
  Tissue AUC of radioactivity: 34189 ± 4885 ng·h/g
Eyes
  % of total AUC: 0.39%
  Half-lives of radioactivity: 75.22 ± 9.40 h
  Tissue AUC of radioactivity: 16519 ± 3048 ng·h/g
Fat
  % of total AUC: 0.60%
  Half-lives of radioactivity: 131.69 ± 21.94 h
  Tissue AUC of radioactivity: 25253 ± 1490 ng·h/g
Heart, 1 hr
  Distribution of radioactivity: 1512.27 ng equivalents/tissue gram
Heart, 6 hr
  Distribution of radioactivity: 1107.89 ng equivalents/tissue gram
Heart, 24 hr
  Distribution of radioactivity: 647.58 ng equivalents/tissue gram
Heart, 48 hr
  Distribution of radioactivity: 527.3 ng equivalents/tissue gram
Heart, 72 hr
  Distribution of radioactivity: 568.43 ng equivalents/tissue gram
Heart, 96 hr
  Distribution of radioactivity: 377.26 ng equivalents/tissue gram
Heart, 192 hr
  Distribution of radioactivity: 443.20 ng equivalents/tissue gram
Heart
  % of total AUC: 2.47%
  Half-lives of radioactivity: 74.35 ± 25.84 h
  Tissue AUC of radioactivity: 104,598 ng·hr/g
Heart, listed as [^14C]-dihydroartemisinin
  Tissue AUC of radioactivity: 104598 ± 24036 ng·h/g
Kidneys, 1 hr
  Distribution of radioactivity: 4097.87 ng equivalents/tissue gram
Kidneys, 6 hr
  Distribution of radioactivity: 4502.00 ng equivalents/tissue gram
Kidneys, 24 hr
  Distribution of radioactivity: 2535.56 ng equivalents/tissue gram
Kidneys, 48 hr
  Distribution of radioactivity: 2324.72 ng equivalents/tissue gram
Kidneys, 72 hr
  Distribution of radioactivity: 3286.27 ng equivalents/tissue gram
Kidneys, 96 hr
  Distribution of radioactivity: 1802.63 ng equivalents/tissue gram
Kidneys, 192 hr
  Distribution of radioactivity: 1819.89 ng equivalents/tissue gram
Kidneys
  % of total AUC: 4.53%
  Half-lives of radioactivity: 77.90 ± 8.41 h
  Tissue AUC of radioactivity: 191,781 ng·hr/g
Kidneys, listed as [^14C]-dihydroartemisinin
  Tissue AUC of radioactivity: 191781 ± 66422 ng·h/g
LI Content, 1 hr
  Distribution of radioactivity: 2914.59 ng equivalents/tissue gram
LI Content, 6 hr
  Distribution of radioactivity: 35567.01 ng equivalents/tissue gram
LI Content, 24 hr
  Distribution of radioactivity: 5127.28 ng equivalents/tissue gram
LI Content, 48 hr
  Distribution of radioactivity: 2037.53 ng equivalents/tissue gram
LI Content, 72 hr
  Distribution of radioactivity: 1426.62 ng equivalents/tissue gram
LI Content, 96 hr
  Distribution of radioactivity: 491.66 ng equivalents/tissue gram
LI Content, 192 hr
  Distribution of radioactivity: 1333.83 ng equivalents/tissue gram
LI Content
  % of total AUC: 13.90%
  Half-lives of radioactivity: 37.20 ± 6.08 h
  Tissue AUC of radioactivity: 588,542 ng·hr/g
LI Content, listed as [^14C]-dihydroartemisinin
  Tissue AUC of radioactivity: 588542 ± 104261 ng·h/g
Large intestine (LI), 1 hr
  Distribution of radioactivity: 1818.56 ng equivalents/tissue gram
Large intestine (LI), 6 hr
  Distribution of radioactivity: 8394.43 ng equivalents/tissue gram
Large intestine (LI), 24 hr
  Distribution of radioactivity: 1420.58 ng equivalents/tissue gram
Large intestine (LI), 48 hr
  Distribution of radioactivity: 562.96 ng equivalents/tissue gram
Large intestine (LI), 72 hr
  Distribution of radioactivity: 509.29 ng equivalents/tissue gram
Large intestine (LI), 96 hr
  Distribution of radioactivity: 220.41 ng equivalents/tissue gram
Large intestine (LI), 192 hr
  Distribution of radioactivity: 304.72 ng equivalents/tissue gram
Large intestine (LI)
  % of total AUC: 1.66%
  Half-lives of radioactivity: 62.53 ± 43.59 h
  Tissue AUC of radioactivity: 70,217 ng·hr/g
Large intestine (LI), listed as [^14C]-dihydroartemisinin
  Tissue AUC of radioactivity: 70217 ± 25001 ng·h/g
Liver, 1 hr
  Distribution of radioactivity: 4594.85 ng equivalents/tissue gram
Liver, 6 hr
  Distribution of radioactivity: 3516.69 ng equivalents/tissue gram
Liver, 24 hr
  Distribution of radioactivity: 1403.29 ng equivalents/tissue gram
Liver, 48 hr
  Distribution of radioactivity: 1104.94 ng equivalents/tissue gram
Liver, 72 hr
  Distribution of radioactivity: 1503.74 ng equivalents/tissue gram
Liver, 96 hr
  Distribution of radioactivity: 842.90 ng equivalents/tissue gram
Liver, 192 hr
  Distribution of radioactivity: 1270.24 ng equivalents/tissue gram
Liver
  % of total AUC: 4.07%
  Half-lives of radioactivity: 95.18 ± 37.90 h
  Tissue AUC of radioactivity: 172,474 ng·hr/g
Liver, listed as [^14C]-dihydroartemisinin
  Tissue AUC of radioactivity: 172474 ± 85780 ng·h/g
Lungs, 1 hr
  Distribution of radioactivity: 1161.72 ng equivalents/tissue gram
Lungs, 6 hr
  Distribution of radioactivity: 1040.99 ng equivalents/tissue gram
